Data on 4 compounds can be found in ChEMBL document CHEMBL2424536, “Withanolides isolated from Withania somnifera with -glucosidase inhibition” (Med Chem Res, 2013).

For orientation: IC50 means the point on the concentration scale where inhibition reaches its midpoint.

Assay [1] relates to Saccharomyces sp. Briefly: Inhibition of Saccharomyces sp. alpha-glucosidase using p-nitrophenyl a-D-glucopyranoside as substrate at 100 ug/ml by spectrophotometric analysis.
Assay [2] is described as follows: (§1) Inhibition of Saccharomyces sp. alpha-glucosidase using p-nitrophenyl a-D-glucopyranoside as substrate by spectrophotometric analysis.
Assay [3] relates to Saccharomyces sp. The assay is described as §1.

`CC1=C(C)C(=O)O[C@@H]([C@](C)(O)C2=CC[C@@]3(O)[C@@H]4CC=C5CC=CC(=O)[C@]5(C)[C@H]4CC[C@]23C)C1` showed an Imax in the assay on Saccharomyces sp. [1] of 96.1%. Besides, the IC50 in assay [2] turned out to be 38.2 µg/mL. Besides, in the assay with Saccharomyces sp. [3], the inhibition result is “Dose-dependent effect”.

Take `OC[C@H]1NC[C@H](O)[C@@H](O)[C@@H]1O` [DUVOGLUSTAT]: the IC50 in assay [2] (read-out: IC50) came out at 422 µM.

Take `CC1=C(C)C(=O)O[C@@H]([C@](C)(O)[C@H]2CC[C@H]3[C@@H]4CC=C5CC=CC(=O)[C@]5(C)[C@H]4CC[C@]23C)C1`: in the assay on Saccharomyces sp. [1], the Imax was 69.7%. In assay [2], this compound registered an IC50 of 85.8 µg/mL. Also, in the assay with Saccharomyces sp. [3], the inhibition result was “Dose-dependent effect”.

On to `CC1=C(C)C(=O)O[C@@H]([C@](C)(O)[C@H]2CC[C@@H]3[C@]2(C)CC[C@H]2[C@@]3(O)[C@H]3O[C@H]3[C@@]3(O)CC=CC(=O)[C@]23C)C1`, for which the Imax in the assay with Saccharomyces sp. [1] was determined as 94.3%. The same compound came in with an IC50 in assay [2] of 40.65 µg/mL. In addition, the inhibition entry in the assay with Saccharomyces sp. [3] is “Dose-dependent effect”.
